Holding throughout (format): cell-based, mouse
For one data set, the system named is osteoblast mitochondria. Briefly: Osteoblast fluorescence imaging of mitochondrial morphology (fission, donut-shaped mitochondria). As to conditions: osteoblasts, 5 days differentiation, siRNA 30 nM, plasmid 1 μg/mL, bongkrekic acid 40 μM; for formation of donut-shaped mitochondria (confocal images, FIGS. 1A to 1C) / mitochondrial fission (confocal images, FIGS. 1A to 1C): versus control; for mitochondrial fission (quantitative analysis, Zeiss Zen 3.1, FIGS. 1D and 1E) / number of donut-shaped mitochondria (quantitative analysis, FIGS. 1D and 1E): versus respective control. On the procedure: To confirm changes in the morphology of osteoblast mitochondria, transgenic mice were prepared to express green fluorescent protein (GFP) specifically in the mitochondrial matrix. Specifically, lgs1^CKI-mitoGFP/CKI-mitoGFP knock-in C57BL/6 female mice were provided by Jeremy Nathans (Johns Hopkins University School of Medicine, MD), Col1a1-Cre male mice were provided by the Korea Research Institute of Bioscience and Biotechnology, and Col1a1-Cre was prepared to be expressed in these mice using the 2.3 kb murine Col1a1 promoter. By mating the prepared C57BL/6 female transgenic mouse with the Col1a1-Cre male mouse, newborn transgenic mice (Col1a1-Cre; Igs1^CKI-mito-GFP/+) that conditionally express GFP only in the mitochondria of osteoblasts were prepared. All animal studies were approved by the Seoul National University Institutional Animal Care and Use Committees.
The skull cells of the prepared transgenic mice that express GFP conditionally only in the mitochondria were treated with 0.25% trypsin (Gibco) for 10 minutes, incubated in 2 mg/mL type 2 collagenase (Worthington) for 30 minutes, and in fresh type 2 collagenase for another 60 minutes. The cells separated from the bone tissue were collected by centrifugation at 1300 rpm for 3 minutes, and the cells were placed on serum and centrifuged to remove debris. To separate living osteoblasts that express GFP in mitochondria, they were stained with 7AAD (Bio-Legend) for 10 minutes (only dead cells were stained) and a flow cytometry technique (Fluorescence-activated cell sorting, FACS) was used.
The osteoblasts extracted in Example 1 were induced to be differentiated in a medium composed of alpha MEM (Minimum Essential Media, Hyclone) supplemented with 10% fetal bovine serum (Gibco) and 100 U/mL penicillin-streptomycin (Gibco) for 5 days. Specifically, the differentiation medium is composed of alpha MEM with 50 μg/mL ascorbic acid (Amreasco), 5 mM beta-glycerophosphate (Sigma), 10% fetal bovine serum (Gibco), and 100 U/mL penicillin-streptomycin (Gibco). Osteoblast differentiation was induced for 5 days.
Short interfering RNA (siRNA) that inhibits the expression of the Opa1 (dynamin-like 120 kDa protein) gene, which induces mitochondrial fusion, and the Fis1 (Mitochondrial fission 1 protein) gene, which induces mitochondrial fission (siOpa1, siFis1, respectively) was transfected into 300,000 osteoblasts per 1 mL at 30 nM each at the same time as differentiation induction using Lipofectamine RNAiMAX Reagent (Invitrogen), and to increase mitochondrial fission, the pCMV-Fis1 plasmid (Korea Human Gene Bank) was transfected into 300,000 osteoblasts per mL at 1 μg/mL at the same time as differentiation induction using TransIT®-LT1 Transfection Reagent (Mirus) to overexpress the Fis1 gene. In addition, the osteoblasts prepared above were treated simultaneously with differentiation with Tris solution-based bongkrekic acid (Sigma, B6179, USA) at a concentration of 40 μM. As a control for the siRNA, osteoblasts were prepared by transfecting the control siRNA in substantially the same manner as the siRNA; as a control for the plasmid, osteoblasts were prepared by transfecting the pCMV-SPORT6 empty vector plasmid into which no gene was inserted in substantially the same manner as the pCMV-Fis1 plasmid; and as a control for the bongkrekic acid, osteoblasts treated with 0.01M Tris solution were prepared. The siRNAs were purchased from Bioneer, Korea and transfected using Lipofectamine RNAimax (Invitrogen, USA) according to the manufacturer's instructions, and specific information on the siRNAs is shown in Table 1 below.
The pCMV-Fis1 plasmid containing full-length mouse Fis1 cDNA (ID: mMU002771) was purchased from the Korea Human Gene Bank, and was transfected into osteoblasts using TransIT-LT1 transfection reagent (Mirus Bio, USA) according to the manufacturer's instructions. […]

A further data set has as its system osteoblasts. Briefly: Alkaline phosphatase (ALP) staining of differentiation-induced osteoblasts. As to conditions: 5 days differentiation, siRNA 30 nM, plasmid 1 μg/mL, bongkrekic acid 40 μM, versus respective control. On the procedure: (§1) The osteoblasts extracted in Example 1 were transfected with 30 nM of siOpa1, siFis1, and 1 μg/mL of pCMV-Fis1 plasmids, respectively, in substantially the same manner as in Example 2-1, and separate osteoblasts were treated with 40 μM bongkrekic acid, and additionally, the osteoblasts extracted in Example 1 were transfected with 30 nM siBax, which is an siRNA of Bax (Bcl-2-associated X), and 1 μg/mL pCMV-Bax plasmid (Korea Human Gene Bank, ID: mMU001857), respectively, and differentiation of the osteoblasts was induced for 5 days in a medium consisting of alpha MEM (Minimum Essential Media, Hyclone) supplemented with 10% fetal bovine serum (Gibco) and 100 U/mL of penicillin-streptomycin (Gibco) of Example 2-1. As a control for the siRNA, osteoblasts were prepared by transfecting the control siRNA of Example 2-1 in substantially the same manner as the siRNA; as a control for the plasmid, osteoblasts were prepared by transfecting the pCMV-SPORT6 empty vector plasmid into which no gene was inserted in substantially the same manner as the pCMV-Fis1 plasmid; and as a control for the bongkrekic acid, osteoblasts treated with 0.01M Tris solution were prepared.
To confirm the osteogenic activity of the osteoblasts differentiation-induced in Example 3-1, staining of alkaline phosphatase (ALP), an osteogenic marker, was performed and observed. Specifically, 1 mg of Naphthol AS-MX phosphate (Sigma) was dissolved in 100 μL of N,N-dimethylformamide (Sigma), then 2 mL of 0.1% Fast blue BB salt (Sigma) solution was added and ALP staining was performed at 37° C. for 30 minutes. Osteogenic activity was confirmed by the intensity of staining, and it was evaluated that the darker the staining, the higher the expression of ALP.

For a further data set, the system named is Alp1. The data set can be described thus: qRT-PCR of osteogenic marker Alp1 in osteoblasts. As to conditions: 5 days differentiation, siRNA 30 nM, plasmid 1 μg/mL, bongkrekic acid 40 μM, normalized to 18S rRNA, versus respective control. How it is done: as §1
(§2) qRT-PCR was performed to evaluate the gene expression level of the osteoblasts that underwent ALP staining in Example 3-2. Total RNA was extracted from the cells using QIAzol Lysis Reagent (Qiagen, Germany) and RNeasy Mini Kit (Qiagen, Germany), and cDNA was prepared using PrimeScript RT Reagent Kit (Takara, Japan) according to the manufacturer's instructions. Quantitative RT-PCR was performed using TB Green Premix Ex Taq II (Takara, Japan) and StepOnePlus Real-Time PCR system (Applied Biosystems, USA). Relative gene expression was determined using standard 2(−ΔΔCt) calculations with normalization to 18S rRNA, and information on the primers used is specifically shown in Table 3 below.
On the technique in general: Real-time PCR tracks product formation cycle by cycle.

The next data set deals with Ibsp. Briefly: qRT-PCR of osteogenic marker Ibsp in osteoblasts. As to conditions: 5 days differentiation, siRNA 30 nM, plasmid 1 μg/mL, bongkrekic acid 40 μM, normalized to 18S rRNA, versus respective control. On the procedure: as §1, §2

For the compound “siOpa1: siRNA inhibiting expression of the Opa1 gene; Bioneer ID 74143-1, SEQ ID NO 1 and 2 (chain 1 GUGUUCACAACGAAACCAAUU; chain 2 UUGGUUUCGUUGUGAACACUU; chemistry not given here)”, in the data set on osteoblast mitochondria, the “formation of donut-shaped mitochondria (confocal images, FIGS. 1A to 1C)” value (shortened to “formation of donut-shaped mitochondria”) is recorded as “increased compared to the control”; the “mitochondrial fission (confocal images, FIGS. 1A to 1C)” value is given as “increased compared to the control”; the “mitochondrial fission (quantitative analysis, Zeiss Zen 3.1, FIGS. 1D and 1E)” value is reported as “significantly increased”; the “number of donut-shaped mitochondria (quantitative analysis, FIGS. 1D and 1E)” value (“number of donut-shaped mitochondria” below) is on record as “significantly increased”. Further, in the data set with osteoblasts, the “degree of ALP staining (osteogenic activity)” value (“degree of ALP staining” for short) was “stronger compared to the respective controls”. In addition, in the data set on Alp1, the “expression of Alp1 (qRT-PCR)” value is on record as “significantly increased”. Further, in the data set with Ibsp, the “expression of Ibsp (qRT-PCR)” value is on record as “significantly increased”.

“siBax: siRNA of Bax (Bcl-2-associated X); Bioneer ID 12028-1, SEQ ID NO 5 and 6 (chain 1 GCUGCAGAGGAUGAUUGCUTT; chain 2 AGCAAUCAUCCUCUGCAGCTT; chemistry not given here)”: the “degree of ALP staining” value in the data set with osteoblasts is “weaker compared to the respective controls”.

As for `CO[C@H](C/C=C\C=C\CC/C=C/C[C@H](C)/C=C/C(=C\C(=O)O)CC(=O)O)/C(C)=C\C=C(/C)C(=O)O` [bongkrekic acid], in the data set on osteoblast mitochondria, the “formation of donut-shaped mitochondria” value is given as “increased compared to the control”; the “mitochondrial fission (confocal images, FIGS. 1A to 1C)” value is recorded as “increased compared to the control”; the “mitochondrial fission (quantitative analysis, Zeiss Zen 3.1, FIGS. 1D and 1E)” value is recorded as “significantly increased”; the “number of donut-shaped mitochondria” value is “significantly increased”. The “degree of ALP staining” value with osteoblasts is “stronger compared to the respective controls”. For the same compound, in the data set on Alp1, the “expression of Alp1 (qRT-PCR)” value is recorded as “significantly increased”. Further, in the data set on Ibsp, the “expression of Ibsp (qRT-PCR)” value was “significantly increased”.

For the compound “siFis1: siRNA inhibiting expression of the Fis1 gene; Bioneer ID 66437-1, SEQ ID NO 3 and 4 (chain 1 CUGAUUGAUAAGGCCAUGAUU; chain 2 UCAUGGCCUUAUCAAUCAGUU; chemistry not given here)”, in the data set on osteoblast mitochondria, the “formation of donut-shaped mitochondria” value was “significantly reduced compared to the control”; the “mitochondrial fission (confocal images, FIGS. 1A to 1C)” value is given as “significantly reduced compared to the control”; the “mitochondrial fission (quantitative analysis, Zeiss Zen 3.1, FIGS. 1D and 1E)” value is “significantly reduced”; the “number of donut-shaped mitochondria” value is listed as “significantly reduced”. The “degree of ALP staining” value with osteoblasts was “weaker compared to the respective controls”. For the same compound, the “expression of Alp1 (qRT-PCR)” value in the data set on Alp1 is listed as “significantly decreased”. Besides, in the data set on Ibsp, the “expression of Ibsp (qRT-PCR)” value is “significantly decreased”.
